# Patent publication US20210154208A1, “Method to Identify Agents That Can Overcome Inhibition Caused By Drug-protein Binding of the Human Plasma Protein, Alpha-1-acid Glycoprotein” (The Johns Hopkins University, priority 2019, published 2021)
# What was measured:
# MOLM-14 cells [1] = assay: Modified plasma inhibition assay (PIA), MTT proliferation in 50% human plasma; format: cell-based; conditions: MOLM-14, 48 hours; for fold inhibition (increase in IC50) in the presence of 50% human plasma: MTT, 50% human plasma vs 10% FBS
# Procedure: (§1) In the original plasma inhibitory assay (PIA), FLT3/ITD-expressing cells are co-incubated with plasma samples from patients receiving a FLT3 TKI, and Western blotting analysis of FLT3 auto-phosphorylation is used to measure the extent of FLT3 inhibitory activity present in their plasma.(9) This can then be compared to total plasma drug levels to determine the relative efficacy of a drug in vivo compared to its activity in vitro. […] To model these effects in the pre-clinical setting, we modified the PIA assay. Whereas the PIA was designed to assess in vivo drug activity with regards to a specific target (e.g.: inhibition of FLT3 auto-phosphorylation by TKI), the modified PIA is similarly cell-based, but measures the clinically relevant biological end-points of cytotoxicity and proliferation inhibition, instead of target inhibition. In the modified assay, FLT3/ITD cell lines are cultured in the presence of human plasma or purified human plasma proteins and treated with a range of concentrations of the drug of interest. […] Furthermore, like the original PIA, Western blot analysis can be performed on cells treated in this manner to study specific pathways of interest (FIG. 1B). […] The modified PIA utilizes the general endpoint of cytotoxicity.
# (§2) Cells in logarithmic growth are resuspended in either human plasma or serum-free RPMI 1640 media supplemented with the plasma protein of interest and seeded in 96-well format at 50 μL per well. Cell density is 2×10^5 cells per well for MOLM-14 and Ba/F3-FLT3/ITD cells. To each well 50 μL of 2× drug dilution in RPMI 1640 media with 10% serum was added. Each condition is plated in quadruplicate. The cells are then incubated at 37° C. After 44 hours of treatment, 10 μL of 5 mg/mL thiazolyl blue tetrazolium bromide (MTT, Sigma) in PBS, sterile-filtered, is added to each well, and the plates are incubated for an additional 4 hours at 37° C. […] Optical absorbance at 570 nm is measured via plate reader (iMark, Bio-Rad), averaging across technical replicates.
# MOLM-14 cells [2] = assay: Modified PIA, MTT proliferation with purified human AGP; format: cell-based; conditions: for inhibition of TKI activity by purified human AGP: MOLM-14, purified human AGP at physiologic concentration (1 mg/mL), sub-physiologic also tested; for ability to displace TKI (TTT-3002, CEP-701) from AGP: MOLM-14, AGP 1.0 mg/mL, increasing doses of competitor, FIG. 13
# Procedure: as §1
# (§3) Where Δ is the fold-change in IC50, KA is the drug-protein association constant, P0 is the total protein concentration and PA is the drug-bound protein concentration. From this relationship, in the absence of other drug-protein interactions, fold-change is linearly related to drug-free protein concentration. […] When the analysis also takes into account drug-bound protein, these curves can be used to directly measure KA. To that end, we performed the modified PIA using purified AGP against the staurosporine-derived FLT3 TKI, using MOLM-14 cells (FIG. 4A). For comparison, we also assayed the anti-proliferative effects of non-specific protein kinase C inhibition by staurosporine itself in HL-60 cells (FLT3 wild-type AML).
# Cells in logarithmic growth are resuspended in either human plasma or serum-free RPMI 1640 media supplemented with the plasma protein of interest and seeded in 96-well format at 50 μL per well. Cell density is 2×10^5 cells per well for MOLM-14 and Ba/F3-FLT3/ITD cells. To each well 50 μL of 2× drug dilution in RPMI 1640 media with 10% serum was added. Each condition is plated in quadruplicate. The cells are then incubated at 37° C. After 44 hours of treatment, 10 μL of 5 mg/mL thiazolyl blue tetrazolium bromide (MTT, Sigma) in PBS, sterile-filtered, is added to each well, and the plates are incubated for an additional 4 hours at 37° C. […] of 10% sodium dodecyl sulfate (JT Baker) in 10 mM hydrochloric acid (Fisher) is then added to each well, and the plates are incubated at 37° C. overnight. Optical absorbance at 570 nm is measured via plate reader (iMark, Bio-Rad), averaging across technical replicates.
# FLT3 = assay: Western blot of FLT3 autophosphorylation and downstream signaling; format: cell-based, human
# Procedure: Cells in logarithmic growth are resuspended in either plasma or RPMI 1640 media supplemented with either 10% FBS serum or physiologic concentrations of purified plasma proteins. The cells are cultured for 1 hour at 37° C. in the presence of drug(s) with intermittent shaking. The cells are then washed, lysed with RIPA buffer (Sigma) per manufacturer's protocol, and total cell lysates separated by sodium dodecyl sulfate polyacrylamide gel electrophoresis (Invitrogen) with Western transfer onto polyvinyl difluoride membranes (Millipore). The membranes are probed for FLT3 by using the S-18 antibody (Santa Cruz), or for other proteins using the indicated antibodies (Cell Signaling Technology), followed by horseradish peroxidase-conjugated goat anti-rabbit secondary antibodies with enhanced chemiluminescence detection (Bio-Rad).
# Ba/F3-FLT3/ITD-Luc cells = assay: Ba/F3-FLT3/ITD-Luc engrafted mouse model with human AGP, bioluminescent imaging; format: in vivo, BALB/c mice; conditions: mifepristone by oral gavage during treatment, imaged day 9
# Procedure: We transplanted sublethally-irradiated BALB/c mice with Ba/F3-FLT3/ITD-Luc cells (Ba/F3 cells expressing both FLT3/ITD and a luciferase reporter). […] Twenty-four hours after the final treatment (day 9), the mice were again imaged to assess response (FIG. 8C).
# BALB/c mice were transplanted after 300 cGy of sublethal X-ray irradiation using a CIXD irradiator (Xstrahl). 5×10^5 Ba/F3-FLT3/ITD-Luc cells were injected via tail vein. Intraperitoneal injections were performed using PBS vehicle with human AGP (Sigma) at 20 mg/mL. […] Mifepristone (Sigma) was dissolved in 50% ethanol and 50% (2-hydroxypropyl)-□-cyclodextrin (Sigma) and administered by oral gavage every 48 hours. Mice were imaged by intraperitoneal injection of luciferin (3 mg) and visualizing on an IVIS Spectrum imager (Caliper LifeSciences) using Living Image software for analysis on day 5 (to monitor engraftment) and on day 9 (to assess drug effect).
# AGP = AGP (Homo sapiens, UniProt P02763); conditions: reported value; cited from earlier work
# HL-60 cells = assay: Modified PIA with purified AGP, anti-proliferative effect of staurosporine; format: cell-based, human; conditions: HL-60 cells (FLT3 wild-type AML)
# Source text: as §3
# as §2, with “C.” for “C. After 44 hours of treatment, 10 μL of 5 mg/mL thiazolyl blue tetrazolium bromide (MTT, Sigma) in PBS, sterile-filtered, is added to each well, and the plates are incubated for an additional 4 hours at 37° C.”
# Chain of AGP (P02763 19-201): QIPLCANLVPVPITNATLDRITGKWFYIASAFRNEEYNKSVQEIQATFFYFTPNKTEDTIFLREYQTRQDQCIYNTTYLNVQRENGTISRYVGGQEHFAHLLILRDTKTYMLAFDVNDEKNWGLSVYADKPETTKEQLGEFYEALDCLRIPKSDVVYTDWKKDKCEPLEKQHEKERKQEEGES
smiles,measurement,setting,value
CNC(=O)[C@@]1(N)C[C@H]2O[C@]1(C)n1c3ccccc3c3c4c(c5c6ccccc6n2c5c31)C(=O)NC4 [TTT-3002],effect of human plasma on IC50,MOLM-14 cells [1]; 50% human plasma vs 10% fetal bovine serum,significantly increased the IC50
same,fold inhibition (increase in IC50) in the presence of 50% human plasma,MOLM-14 cells [1],9 fold
same,fold inhibition by AGP (fold-change in IC50),"MOLM-14 cells [2]; MOLM-14, purified AGP at physiologic concentrations",30 fold
same,inhibition of TKI activity by purified human AGP,MOLM-14 cells [2],comparable inhibition to that observed with human plasma
same,inhibition of FLT3 phosphorylation in the presence of human plasma,"FLT3; MOLM-14, 1 hour, TKI 10 nM and 100 nM, human plasma",significant decrease in inhibition of FLT3 phosphorylation
CN(C)CCC=C1c2ccccc2CCc2ccccc21 [amitriptyline],"ability to displace TKI (TTT-3002, CEP-701) from AGP",MOLM-14 cells [2],cannot displace the more tightly-bound TKI from AGP
C[C@]12O[C@H](C[C@]1(O)CO)n1c3ccccc3c3c4c(c5c6ccccc6n2c5c31)CNC4=O [lestaurtinib],"fold inhibition by AGP, predicted","MOLM-14 cells [2]; MOLM-14, purified AGP at physiologic concentrations, predicted",> 1000 fold
same,shift in IC50 with human AGP,MOLM-14 cells [2]; human AGP,500 fold
CC#C[C@]1(O)CC[C@H]2[C@@H]3CCC4=CC(=O)CCC4=C3[C@@H](c3ccc(N(C)C)cc3)C[C@@]21C [mifepristone],effect of agent alone on cell growth,"MOLM-14 cells [2]; MOLM-14, concentrations of maximal disinhibiting effect",no appreciable effect on cell growth
same,effect on TTT-3002 dose-response curve in the presence of purified AGP,"MOLM-14 cells [2]; MOLM-14, increasing concentrations of mifepristone, TTT-3002 plus AGP",dose-response curve shifted back to that seen in the absence of AGP
same,effect on TTT-3002 dose-response curves in the absence of AGP,"MOLM-14 cells [2]; MOLM-14, no AGP",no impact
same,restoration of FLT3 inhibition by TTT-3002 in the presence of AGP,"FLT3; MOLM-14, TTT-3002 (2 nM), inhibiting AGP, increasing mifepristone",dose-dependent restoration of FLT3 inhibition
same,effect of agent alone on FLT3 autophosphorylation or downstream signaling,"FLT3; MOLM-14, mifepristone alone",no effect
same,"response of FLT3/ITD-expressing cells (bioluminescence), mifepristone added to midostaurin/AGP",Ba/F3-FLT3/ITD-Luc cells,regression of the transplanted cells at levels comparable to those of the midostaurin alone treated mice
same,KA (association constant with AGP),AGP,7 to 8 µM⁻¹
CC(C)(C)c1cc(NC(=O)Nc2ccc(-c3cn4c(n3)sc3cc(OCCN5CCOCC5)ccc34)cc2)no1 [quizartinib],fold inhibition (increase in IC50) in the presence of 50% human plasma,MOLM-14 cells [1],37 fold
same,inhibition of TKI activity by purified human AGP,MOLM-14 cells [2],not significant inhibited
CNC(=O)c1cc(Oc2ccc(NC(=O)Nc3ccc(Cl)c(C(F)(F)F)c3)cc2)ccn1 [sorafenib],inhibition of TKI activity by purified human AGP,MOLM-14 cells [2],not significant inhibited
CN[C@@H]1C[C@H]2O[C@@](C)([C@@H]1OC)n1c3ccccc3c3c4c(c5c6ccccc6n2c5c31)C(=O)NC4 [staurosporine],anti-proliferative activity in the presence of AGP,HL-60 cells,no appreciable activity in the presence of AGP until saturating concentrations of drug were used
O=C1CCC(N2C(=O)c3ccccc3C2=O)C(=O)N1 (centres unmarked) [thalidomide],"ability to displace TKI (TTT-3002, CEP-701) from AGP",MOLM-14 cells [2],cannot displace the more tightly-bound TKI from AGP
